Measured values from US4371540A, “Nitroimidazoles of low toxicity and high activity as radiosensitizers of hypoxic tumor cells” (priority 1980, dated 1983).
Converted amounts (≈) assume the structure as drawn.

Legend:
in vivo [1] = conditions: mouse
[2] = 1-electron reduction potential / electron affinity; type: physicochemical; conditions: for E7^1 (1-electron reduction potential): Table 1; for electron affinity relative to MIS: in words
physchem [3] = conditions: octanol:water
tumors in vivo = tumors in vivo and cells; Brown and Lee, 1979; cited from earlier work
[4] = peak tumor concentration in dogs bearing spontaneous tumors; conditions: for Mean Peak Tumor Concentration: dogs with spontaneous tumors, i.v. bolus 0.5 micromoles/g
BALB/c mice = conditions: for acute toxicity relative to MIS: from LD50 data of Table 1
[5] = accelerated rotarod neurotoxicity test; conditions: for Dose to Give Equivalent Neurotoxicity Relative to MIS: daily dosing, MIS = 1; for factor by which less neurotoxic than MIS: at least a factor of
Source text: Performance and toxicity determinations were made after four-and-one-half weeks of daily dosing.

hypoxic tumor cells = conditions: cited from earlier work
[6] = plasma pharmacokinetics and neural tissue exposure (AUC) in dogs; conditions: for AUC / clearance: dog; for AUC: 500 umol/kg; for AUC PNS: peripheral nerve
Procedure: (§1) The imidazoles were formulated in a 0.9% sodium chloride solution at a concentration of 5%. Doses of 0.25-1.0 mmole/kg of each compound were administered to normal adult, male cross-bred dogs and subsequent plasma concentrations were monitored by high performance liquid chromatography. Samples of brain, cerebrospinal fluid (CSF), and peripheral nerve (PNS) were removed for assay from similarly dosed dogs over the same test period.

[7] = method of Fujita et al
[8] = for tumor/brain ratio relative to MIS: i.p., EMT6 tumor bearing mice, FIGS. 1 and 2; for crossing of the blood/brain barrier relative to MIS: in words
Procedure: Each test compound was formulated immediately before administration to the animals in Hanks' balanced salt solution at a concentration such that the volume injected intraperitoneally was 0.05 ml per g body weight.
The mice were injected intraperitoneally and at various times were bled by cardiac puncture under anesthesia. Plasma was obtained by centrifugation and stored frozen at -20° C. The tumor and whole brain were taken immediately after cardiac puncture and stored frozen at -20° C.
The brain/plasma ratio is the mean value from all the mice for each compound.

EMT6 tumor cells = assay: radiosensitization of EMT6 tumor cells; conditions: in words
physchem [9] = conditions: 0.9% saline
in vivo [10] = conditions: dog
Procedure: as §1

[11] = plasma concentration after oral administration of acetate esters versus parent drugs; type: in vivo; conditions: mice, 4 or 5 mmole/kg
[12] = dogs, standardized for 0.5 mmole/kg

Q: Which LD50 (in vivo [1]) does the source give for `O=[N+]([O-])c1nccn1CCN1CCOCC1` here?
A: ~900 mg/kg

Q: What about the “E7^1 (1-electron reduction potential)” value [2] of the same compound?
A: -390 mV

Q: What about the logP (physchem [3]) of the same compound?
A: -0.0862

Q: Which results are given for `O=[N+]([O-])c1nccn1CC(O)CCl` (stereo not shown) [Compound 1]?
A: LD50 (in vivo [1]): ~180 mg/kg; E7^1 (1-electron reduction potential) [2]: -384 mV; logP (physchem [3]): 0.176

Q: For `CCOCC(O)Cn1ccnc1[N+](=O)[O-]` (stereo not shown) [Compound 2], which LD50 (in vivo [1]) is on record?
A: > 1100 mg/kg

Q: And the “E7^1 (1-electron reduction potential)” value [2]?
A: -391 mV

Q: And the logP (physchem [3])?
A: 0.104

Q: With `O=[N+]([O-])c1nccn1CC(O)CF` (stereo not shown) [Compound 4] as the compound, how does the LD50 (in vivo [1]) read?
A: ~900 mg/kg

Q: And the “E7^1 (1-electron reduction potential)” value [2]?
A: -383 mV

Q: And the logP (physchem [3])?
A: -0.357

Q: With `O=[N+]([O-])c1nccn1CC(O)CO` (stereo not shown) [Compound 6] as the compound, how does the LD50 (in vivo [1]) read?
A: 3100 mg/kg

Q: And the “E7^1 (1-electron reduction potential)” value [2]?
A: -389 mV

Q: And the logP (physchem [3])?
A: -0.886

Q: For `C[S+]([O-])CCn1ccnc1[N+](=O)[O-]` (stereo not shown) [Compound 7], which LD50 (in vivo [1]) is on record?
A: ~2000 mg/kg

Q: And the logP (physchem [3])?
A: -1.22

Q: For `O=C(Cn1ccnc1[N+](=O)[O-])NCC(O)CO` (stereo not shown) [Compound 10], which “radiosensitizing activity relative to MIS” value (tumors in vivo) is on record?
A: significantly inferior to MIS

Q: What about the LD50 (in vivo [1]) of the same compound?
A: > 6100 mg/kg

Q: And the “E7^1 (1-electron reduction potential)” value [2]?
A: -392 mV

Q: What about the logP (physchem [3]) of the same compound?
A: -1.85

Q: With `COCC(O)Cn1ccnc1[N+](=O)[O-]` (stereo not shown) [MIS, misonidazole, reference compound] as the compound, how does the “Mean Peak Tumor Concentration” value [4] read?
A: 0.56 μ moles.g^-1

Q: And the “Acute LD50” value (BALB/c mice; BALB/c mice (20-25 g))?
A: 1.8(1.3-2.6) mg/g

Q: And the “Dose to Give Equivalent Neurotoxicity Relative to MIS” value ([5]; four-and-one-half weeks)?
A: 1

Q: What about the “radiosensitization at recommended dose” value (hypoxic tumor cells; conventional multifraction radiotherapy regime) of the same compound?
A: suboptimal radiosensitization

Q: And the “radiosensitizing activity relative to metronidazole” value (hypoxic tumor cells; in words)?
A: greater radiosensitizing activity of the two compounds

Q: And the “clinical limitation by toxicity” value (hypoxic tumor cells; man, in words)?
A: limited by its neurotoxicity

Q: And the “recommended maximum total dose (neurotoxicity)” value (hypoxic tumor cells; man, per body surface, Dische et al)?
A: ≤ 12 g/m^2

Q: And the “E7^1 (1-electron reduction potential)” value [2]?
A: -389 mV

Q: And the AUC ([6]; cerebrospinal fluid)?
A: 2660 µM·h

Q: What about the clearance ([6]; plasma) of the same compound?
A: 1.5 mL/min/kg

Q: What about the AUC ([6]; plasma) of the same compound?
A: 3680 µM·h

Q: What about the “AUC PNS” value [6, 12] of the same compound?
A: 2.25 μ moles.hr.ml^ -1 or g^-1

Q: What about the “AUC Brain” value [6, 12] of the same compound?
A: 2.32 μ moles.hr.ml^ -1 or g^-1

Q: Which “octanol:water partition coefficient” value [7] does the source give for `O=C(Cn1ccnc1[N+](=O)[O-])NCCO` [SR-2508, N-(2-hydroxyethyl)-2-(2-nitro-1-imidazolyl)acetamide] here?
A: 0.046

Q: And the “tumor/brain ratio relative to MIS” value [8]?
A: an order of magnitude greater than MIS

Q: And the “crossing of the blood/brain barrier relative to MIS” value [8]?
A: to a lower degree than does MIS

Q: And the “acute toxicity relative to MIS” value (BALB/c mice)?
A: about three to five times less

Q: What about the “factor by which less neurotoxic than MIS” value [5] of the same compound?
A: 3-5

Q: What about the “Dose to Give Equivalent Neurotoxicity Relative to MIS” value ([5]; four-and-one-half weeks) of the same compound?
A: > 3.3

Q: What about the “radiosensitizing efficiency relative to MIS” value (EMT6 tumor cells) of the same compound?
A: comparable radiosensitizing activity

Q: What about the solubility (physchem [9]) of the same compound?
A: ~200 mg/mL (≈ 934 mM)

Q: What about the LD50 (in vivo [1]) of the same compound?
A: 4900 mg/kg

Q: What about the “E7^1 (1-electron reduction potential)” value [2] of the same compound?
A: -388 mV

Q: What about the “electron affinity relative to MIS” value [2] of the same compound?
A: similar

Q: And the logP (physchem [3])?
A: -1.34

Q: And the clearance (in vivo [10])?
A: 3.5 mL/min/kg

Q: For `O=C(Cn1ccnc1[N+](=O)[O-])N(CCO)CCO` [SR-2555, N,N-di-(2-hydroxyethyl)-2-(2-nitro-1-imidazolyl)acetamide], which “octanol:water partition coefficient” value [7] is on record?
A: 0.026

Q: What about the “Mean Peak Tumor Concentration” value [4] of the same compound?
A: 1.30 μ moles.g^-1

Q: What about the “peak tumor concentration relative to MIS” value ([4]; dogs, i.v. bolus, in words) of the same compound?
A: considerably higher than MIS

Q: And the “time of peak tumor concentration relative to MIS” value ([4]; dogs, i.v. bolus, in words)?
A: considerably earlier than MIS

Q: What about the “tumor/brain ratio relative to MIS” value [8] of the same compound?
A: an order of magnitude greater than MIS

Q: What about the “crossing of the blood/brain barrier relative to MIS” value [8] of the same compound?
A: to a lower degree than does MIS

Q: What about the “acute toxicity relative to MIS” value (BALB/c mice) of the same compound?
A: about three to five times less

Q: What about the “factor by which less neurotoxic than MIS” value [5] of the same compound?
A: 3-5

Q: And the “Performance Relative to Controls” value ([5]; daily dose 3.0 mg/g, four-and-one-half weeks)?
A: 1.07 ± 0.16

Q: What about the “Dose to Give Equivalent Neurotoxicity Relative to MIS” value ([5]; four-and-one-half weeks) of the same compound?
A: > 5

Q: And the “radiosensitizing efficiency relative to MIS” value (EMT6 tumor cells)?
A: comparable radiosensitizing activity

Q: What about the solubility (physchem [9]) of the same compound?
A: > 300 mg/mL

Q: And the LD50 (in vivo [1])?
A: > 7700 mg/kg

Q: What about the “E7^1 (1-electron reduction potential)” value [2] of the same compound?
A: -398 mV

Q: And the “electron affinity relative to MIS” value [2]?
A: similar

Q: And the logP (physchem [3])?
A: -1.59

Q: And the AUC ([6]; cerebrospinal fluid, AUC CSF, dogs, standardized for 0.5 mmole/kg)?
A: 170 µM·h

Q: And the clearance ([6]; plasma)?
A: 4.33 mL/min/kg

Q: What about the AUC ([6]; plasma, AUC Plasma, dogs, standardized for 0.5 mmole/kg) of the same compound?
A: 1620 µM·h

Q: What about the “clearance rate relative to MIS” value ([6]; dogs, in words) of the same compound?
A: considerably more rapid than for MIS

Q: And the “penetration into brain, CSF and peripheral nerves relative to MIS” value ([6]; dogs, in words)?
A: considerably lower

Q: And the “total exposure of neural tissues (AUC) relative to MIS” value ([6]; dogs, in words)?
A: significantly smaller than for MIS

Q: And the “AUC PNS” value [6, 12]?
A: 0.75 μ moles.hr.ml^ -1 or g^-1

Q: And the “AUC Brain” value [6, 12]?
A: 0.51 μ moles.hr.ml^ -1 or g^-1

Q: For `CC(=O)OCCNC(=O)Cn1ccnc1[N+](=O)[O-]` [acetate ester of SR-2508], which “peak plasma concentration of SR-2508 or SR-2555 after oral ester relative to oral parent drug” value [11] is on record?
A: significantly higher

Q: For `COC(=O)Cn1ccnc1[N+](=O)[O-]` [methyl 2-nitroimidazole-1-acetate], which solubility (physchem [9]) is on record?
A: 13.6 mg/mL (≈ 73.5 mM)
